Results: ChEMBL document CHEMBL1201862, “PubChem BioAssay data set” (2004)
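Cells were grown in 96-well plates and exposed to each compound for 48 hours at five concentrations; endpoints were interpolated linearly between bracketing concentrations, or set to the highest concentration if not reached. GI50 = concentration required for 50% inhibition of growth.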 Calls of active or inactive are those of the source. Rule as the data show it: active = GI50 up to about 1.1 µM and inactive = higher.

Key:
Assay in all cases: DTP human tumour cell line panel, 48 h
HCT-116 = test system: HCT-116
DMS-273 = test system: DMS-273
SF-539 = test system: SF-539
KM-20L2 = test system: KM-20L2
PC-3 = test system: PC-3
SNB-78 = test system: SNB-78
NCI-H226 = test system: NCI-H226
TK-10 = test system: TK-10
XF498 = test system: XF498
SNB-19 = test system: SNB-19
HL-60 = test system: HL-60
OVCAR-8 = test system: OVCAR-8
SR = test system: SR
Hs-578T = test system: Hs-578T
DMS-114 = test system: DMS-114
M19-MEL = test system: M19-MEL
CAKI-1 = test system: CAKI-1
M14 = test system: M14
HOP-18 = test system: HOP-18
BT-549 = test system: BT-549
MDA-MB-231 = test system: MDA-MB-231
MDA-N = test system: MDA-N
DU-145 = test system: DU-145
T47D = test system: T47D
MDA-MB-435 = test system: MDA-MB-435
786-0 = test system: 786-0
DLD-1 = test system: DLD-1
Malme-3M = test system: Malme-3M
HCT-15 = test system: HCT-15
SK-OV-3 = test system: SK-OV-3
UACC-62 = test system: UACC-62
EKVX = test system: EKVX
HOP-62 = test system: HOP-62
COLO 205 = test system: COLO 205
SK-MEL-5 = test system: SK-MEL-5
KM12 = test system: KM12
A549 = test system: A549
UACC-257 = test system: UACC-257
SNB-75 = test system: SNB-75
SF-268 = test system: SF-268
IGROV-1 = test system: IGROV-1
OVCAR-3 = test system: OVCAR-3
HOP-92 = test system: HOP-92
RXF 393 = test system: RXF 393
SW-620 = test system: SW-620
A498 = test system: A498
NCI-H23 = test system: NCI-H23
LOX IMVI = test system: LOX IMVI
NCI-H460 = test system: NCI-H460
NCI-H522 = test system: NCI-H522
U-251 = test system: U-251
RPMI-8226 = test system: RPMI-8226
OVCAR-5 = test system: OVCAR-5
K562 = test system: K562
MCF7 = test system: MCF7
MOLT-4 = test system: MOLT-4
CCRF-CEM = test system: CCRF-CEM
OVCAR-4 = test system: OVCAR-4
SF-295 = test system: SF-295
HT-29 = test system: HT-29
SK-MEL-28 = test system: SK-MEL-28
LXFL 529 = test system: LXFL 529
HCC 2998 = test system: HCC 2998
ACHN = test system: ACHN
UO-31 = test system: UO-31
SK-MEL-2 = test system: SK-MEL-2
NCI/ADR-RES = test system: NCI/ADR-RES
SN12C = test system: SN12C

Measured: GI50

CO[C@H](C(=O)[C@@H](O)[C@@H](C)O)[C@@H]1Cc2cc3cc(OC4CC(OC5CC(O)C(O)C(C)O5)C(O)C(C)O4)c(C)c(O)c3c(O)c2C(=O)[C@H]1OC1CC(OC2CC(OC3CC(C)(O)C(O)C(C)O3)C(O)C(C)O2)C(O)C(C)O1 (stereo partly drawn)
active: HCT-116 0.125 µM | DMS-273 0.348 µM | SF-539 0.125 µM | KM-20L2 0.348 µM | PC-3 0.0284 µM | SNB-78 0.395 µM | NCI-H226 0.125 µM | TK-10 0.129 µM | XF498 0.314 µM | SNB-19 0.125 µM | HL-60 0.128 µM | OVCAR-8 0.176 µM | SR 0.00526 µM | Hs-578T 0.00331 µM | DMS-114 0.348 µM | M19-MEL 0.314 µM | CAKI-1 0.125 µM | M14 0.0196 µM | HOP-18 0.125 µM | BT-549 0.00689 µM | MDA-MB-231 0.0495 µM | MDA-N 0.0128 µM | DU-145 0.0438 µM | T47D 0.00406 µM | MDA-MB-435 0.0197 µM | 786-0 0.00927 µM | DLD-1 0.334 µM

COc1cc(-c2ccc(Nc3ccccc3C(=O)O)c(OC)c2)ccc1Nc1ccccc1C(=O)O
inactive: Malme-3M 39.6 µM | DMS-273 1.81 µM | SF-539 5.45 µM | KM-20L2 > 56 µM | SK-OV-3 23.4 µM | UACC-62 1.46 µM | PC-3 2 µM | EKVX 58.7 µM | HOP-62 8.57 µM | COLO 205 48.3 µM | SNB-78 32 µM | NCI-H226 22.6 µM | SK-MEL-5 16.6 µM | TK-10 36.6 µM | KM12 7.53 µM | A549 4.22 µM | UACC-257 20.5 µM | SNB-75 30.2 µM | SF-268 11.4 µM | IGROV-1 21 µM | XF498 > 40.1 µM | OVCAR-3 20.6 µM | SNB-19 10.2 µM | HOP-92 41 µM | RXF 393 21.2 µM | SW-620 7.38 µM | A498 > 47.2 µM | NCI-H23 18.3 µM | LOX IMVI 1.28 µM | HL-60 1.91 µM | NCI-H460 1.94 µM | NCI-H522 8.87 µM | U-251 3.3 µM | RPMI-8226 2.33 µM | OVCAR-8 8.95 µM | Hs-578T 11.3 µM | OVCAR-5 > 37.5 µM | K562 1.35 µM | MCF7 5.08 µM | DMS-114 25.4 µM | CAKI-1 8.69 µM | MOLT-4 1.13 µM | M14 26.5 µM | CCRF-CEM 2.38 µM | OVCAR-4 28.2 µM | SF-295 11.9 µM | HOP-18 > 100 µM | HT-29 31 µM | SK-MEL-28 33.8 µM | LXFL 529 1.68 µM | HCC 2998 21.7 µM | ACHN 8.69 µM | BT-549 15.8 µM | UO-31 13.6 µM | MDA-MB-231 13.7 µM | SK-MEL-2 19.3 µM | MDA-N 10 µM | DU-145 8.65 µM | T47D 11.2 µM | NCI/ADR-RES > 46.2 µM | SN12C 9.91 µM | MDA-MB-435 8.59 µM | 786-0 4.52 µM | DLD-1 > 28 µM
active: HCT-116 0.792 µM | SR 0.557 µM
0.619 µM: HCT-15

Cc1[nH]c(=O)[nH]c(=O)c1/C=C/C(=O)NC(CO)CC(C)C (stereo not drawn)
> 360 µM: HCT-15
inactive: Malme-3M 233 µM | HCT-116 322 µM | DMS-273 > 375 µM | SF-539 > 375 µM | KM-20L2 88.1 µM | SK-OV-3 > 300 µM | UACC-62 > 375 µM | EKVX > 375 µM | HOP-62 > 375 µM | COLO 205 242 µM | SNB-78 373 µM | NCI-H226 > 375 µM | SK-MEL-5 > 375 µM | KM12 > 375 µM | A549 349 µM | UACC-257 > 375 µM | SNB-75 226 µM | SF-268 231 µM | IGROV-1 > 375 µM | XF498 60 µM | OVCAR-3 164 µM | SNB-19 356 µM | HOP-92 17.5 µM | RXF 393 > 375 µM | SW-620 351 µM | A498 > 375 µM | NCI-H23 > 362 µM | LOX IMVI > 375 µM | HL-60 > 361 µM | NCI-H460 163 µM | NCI-H522 114 µM | U-251 > 343 µM | RPMI-8226 > 375 µM | OVCAR-8 160 µM | OVCAR-5 > 265 µM | K562 179 µM | MCF7 228 µM | DMS-114 260 µM | M19-MEL 322 µM | CAKI-1 146 µM | MOLT-4 237 µM | CCRF-CEM 181 µM | OVCAR-4 214 µM | SF-295 > 375 µM | HOP-18 254 µM | HT-29 222 µM | SK-MEL-28 305 µM | HCC 2998 222 µM | UO-31 > 375 µM | SK-MEL-2 > 305 µM | NCI/ADR-RES > 375 µM | SN12C 274 µM | DLD-1 > 375 µM
